This note sets out measurements from ChEMBL document CHEMBL1126514, “Thiopene systems. 15. Synthesis and antihypertensive activity of 7- (subsituted benzamido)-6-hydroxythieno[3,2,-b]pyrans as nwe potassium channel activitors” (1993).

What all share (format): functional
The subject of test [1] is Rattus norvegicus. The experiment in a line: Maximal change in mean arterial blood pressure comparing MAP immediately prior to and up to 240 min after oral dose in rat.
In test [2] the test system is Rattus norvegicus. Description: Maximal change in mean arterial blood pressure comparing MAP immediately prior to and up to 240 min after oral dose of 0.1 mgkg of compound in rat.
Test [3] concerns Rattus norvegicus. Description: Dose to produce 30% reduction in mean arterial pressure in rat when administered perorally. The settings on record: Artery, po.
Test [4] has as its system Rattus norvegicus. Description: Maximal change in mean arterial blood pressure comparing MAP immediately prior to and up to 240 min after oral dose of 1 mgkg of compound in rat.
Test [5] concerns Rattus norvegicus. Description: Maximal change in mean arterial blood pressure comparing MAP immediately prior to and up to 240 min after oral dose of 0.3 mgkg of compound in rat.

Turning to `CC1(C)Oc2ccsc2[C@@H](NC(=O)c2ccccc2)[C@@H]1O`, the “Change MAP” value in the test with Rattus norvegicus [1] is 35%. The same measure, in the same setting: then `CC(=O)c1cc2c(s1)[C@@H](NC(=O)c1ccco1)[C@H](O)C(C)(C)O2`, with 38%. `CC(=O)c1cc2c(s1)[C@@H](NC(=O)c1ccc(F)cc1F)[C@H](O)C(C)(C)O2`: the figures for the “Change MAP” value in the test with Rattus norvegicus [1] and in the test with Rattus norvegicus [2] were 59% and 16%, respectively. On to `CC1(C)Oc2cc([N+](=O)[O-])sc2[C@@H](N2CCCCC2=O)[C@@H]1O`, for which the ED30 with Rattus norvegicus [3] is 0.015 mg/kg. In the test with Rattus norvegicus [2], the “Change MAP” value was determined as 63%. Molecule `CC(=O)c1cc2c(s1)[C@@H](NC(=O)c1ccc([N+](=O)[O-])cc1)[C@H](O)C(C)(C)O2` displayed an ED30 in the test with Rattus norvegicus [3] of 0.89 mg/kg. Further, the “Change MAP” value in the test with Rattus norvegicus [1] was found to be 63%.

For the molecule `CC(=O)c1cc2c(s1)[C@@H](NC(=O)c1cccc([N+](=O)[O-])c1)[C@H](O)C(C)(C)O2`, the “Change MAP” value with Rattus norvegicus [4] turned out to be 17%; in the test on Rattus norvegicus [1], 63%. For `CC(=O)c1cc2c(s1)[C@@H](NC(=O)c1ccc(C(F)(F)F)cc1)[C@H](O)C(C)(C)O2`, in the test with Rattus norvegicus [1], the “Change MAP” value was 26%.

In the case of `CC(=O)c1cc2c(s1)[C@@H](NC(=O)c1cccnc1)[C@H](O)C(C)(C)O2`, the “Change MAP” value in the test on Rattus norvegicus [1] is on record as 29%. Consider `CC(=O)c1cc2c(s1)[C@@H](NC(=O)c1cccc(Cl)c1)[C@H](O)C(C)(C)O2`, for which the “Change MAP” value in the test with Rattus norvegicus [5] was determined as 17%; in the test with Rattus norvegicus [1], 59%. In the case of `COc1ccc(C(=O)N[C@@H]2c3sc(C(C)=O)cc3OC(C)(C)[C@H]2O)cc1`, in the test on Rattus norvegicus [1], the “Change MAP” value is 20%.

With `CC(=O)c1cc2c(s1)[C@@H](NC(=O)c1ccccc1F)[C@H](O)C(C)(C)O2`, the “Change MAP” value with Rattus norvegicus [4] is on record as -17%; in the test with Rattus norvegicus [1], 59%.

Regarding `CC(=O)c1cc2c(s1)[C@@H](NC(=O)c1ccc(C)cc1)[C@H](O)C(C)(C)O2`, the “Change MAP” value in the test on Rattus norvegicus [1] came to 10%. With `CC(=O)c1cc2c(s1)[C@@H](NC(=O)c1ccc(F)cc1)[C@H](O)C(C)(C)O2`, in the test on Rattus norvegicus [3], the ED30 was found to be 0.059 mg/kg. Moreover, the “Change MAP” value in the test on Rattus norvegicus [1] was found to be 75%. In turn, `CC1(C)Oc2cc([N+](=O)[O-])sc2[C@@H](N2Cc3ccccc3C2=O)[C@@H]1O` yielded an ED30 with Rattus norvegicus [3] of 0.22 mg/kg.

For the molecule `CC(=O)c1cc2c(s1)[C@@H](NC(=O)c1ccc(Cl)cc1)[C@H](O)C(C)(C)O2`, the ED30 in the test on Rattus norvegicus [3] worked out at 0.11 mg/kg. Further, the “Change MAP” value in the test with Rattus norvegicus [1] is on record as 60%. As for `CC1(C)Oc2cc([N+](=O)[O-])sc2[C@@H](NC(=O)c2ccccc2)[C@@H]1O`, the “Change MAP” value with Rattus norvegicus [1] was found to be 38%. In turn, `CC(=O)c1cc2c(s1)[C@@H](NC(=O)c1ccc(F)c(F)c1)[C@H](O)C(C)(C)O2` displayed an ED30 in the test with Rattus norvegicus [3] of 0.099 mg/kg. Moreover, the “Change MAP” value in the test on Rattus norvegicus [1] amounted to 62%. The molecule `CC(=O)c1cc2c(s1)[C@@H](NC(=O)c1ccccc1)[C@H](O)C(C)(C)O2` registered an ED30 in the test on Rattus norvegicus [3] of 0.2 mg/kg. In addition, in the test on Rattus norvegicus [1], the “Change MAP” value was 55%. For the molecule `CC1(C)Oc2cc([N+](=O)[O-])sc2[C@@H](NC(=O)c2ccc([N+](=O)[O-])cc2)[C@@H]1O`, in the test with Rattus norvegicus [1], the “Change MAP” value worked out at 29%. In the test with Rattus norvegicus [3], `CC1(C)Oc2ccc(OC(F)(F)F)cc2[C@@H](N2Cc3ccccc3C2=O)[C@@H]1O` [CELIKALIM] displayed an ED30 of 0.5 mg/kg.

For `CC1(C)Oc2ccc(C#N)cc2[C@@H](N2CCCC2=O)[C@@H]1O` [CROMAKALIM], in the test with Rattus norvegicus [3], the ED30 stood at 0.19 mg/kg. Also, the “Change MAP” value in the test with Rattus norvegicus [1] was found to be 47%.
